Key:
Type in all cases: physicochemical
[1] = Hygroscopic test of finely milled powder, water content by Karl Fischer method; details: for Water content level (wt %), hygroscopic test of finely milled aripiprazole crystal, 24 hours: 60° C., humidity 100%
Description: The finely milled powder obtained above was evaluated by a hygroscopic test according to the following method.
About 1 g of milled powder was weighed in a weighing bottle with a diameter of 5 cm, allowed to stand in water/desiccator in which the temperature and humidity were respectively set to 60° C. and 100%, and then allowed to stand in MgCl2.6H2O saturated salt solution/desiccator having a room temperature and humidity of about 30% for 24 hours, Thereafter, the water content was measured. The water content was measured according to the Karl Fischer method by accurately measuring 0.1 g of a sample.

[2] = Mean particle size by laser diffraction scattering particle size distribution analyzer; details: volume mean diameter, dry
Description: The term “mean particle size” refers to volume mean diameter as calculated from the particle size distribution measured by a laser scattering particle size distribution analyzer analyzer.
The particle size of the resulting finely milled powder of highly hygroscopic aripiprazole anhydrous crystal was measured using Dry Unit 2000, which was a laser diffraction scattering particle size distribution analyzer (Laser Micron Sizer (LMS-2000e)), and the mean particle size was calculated from the obtained measurement results. […] The measurement conditions using a laser diffraction scattering particle size distribution analyzer were as follows: Particle refractive index: 1.750, imaginary part: 0.1, and dispersive pressure: 0.15 MPa.

[3] = Hygroscopic test of aripiprazole anhydrous crystal, water content by Karl Fischer coulometric titration; details: for Water content level (wt %) after humidification: after 24 hours at 60° C. in desiccator including water; for Water content level (wt %) before humidification: before hygroscopic test
Description: About 1 g of aripiprazole obtained in the Synthesis Example was weighed in each of the weighing bottles having a diameter of about 5 cm. Each of the bottles was sealed with Kimwipe, and allowed to stand in a desiccator including water. The desiccator was placed in an oven at 60° C., and allowed to stand for 24 hours.
The weighing bottles were removed from the desiccator, and allowed to stand for 16 hours or more in a desiccator (room temperature/about 30% RH) including an MgCl2/6H2O saturated salt solution, thereby removing attached excess water. The water contents of the samples before and after the hygroscopic test were measured according to the following test procedure.
0.1 g of the aripiprazole obtained in the Synthesis Example and 0.1 g of the aripiprazole obtained after the hygroscopic test were accurately weighed. Using a moisture meter (CA-200) produced by Mitsubishi Chemical Analytech Co., Ltd., a test was performed according to the coulometric titration method, which is a water content measurement method (Karl Fischer method).

SMILES	Water content level (wt %), hygroscopic test of finely milled aripiprazole crystal, 0 hour [1]	Water content level (wt %), hygroscopic test of finely milled aripiprazole crystal, 24 hours [1]	Mean particle size [2]	Water content level (wt %) after humidification [3]	Water content level (wt %) before humidification [3]
O=C1CCc2ccc(OCCCCN3CCN(c4cccc(Cl)c4Cl)CC3)cc2N1 [compound 3, 7-{4-[4-(2,3-dichlorophenyl)-1-piperazinyl]butoxy}-3,4-dihydrocarbostyril]	0.24 wt %	3.97 wt %	8.9 μm	–	–
O=C1CCc2ccc(OCCCCN3CCN(c4cccc(Cl)c4Cl)CC3)cc2N1 [Reference Example 1, 7-{4-[4-(2,3-dichlorophenyl)-1-piperazinyl]butoxy}-3,4-dihydrocarbostyril]	0.10 wt %	3.37 wt %	2.6 μm	–	–
O=C1CCc2ccc(OCCCCN3CCN(c4cccc(Cl)c4Cl)CC3)cc2N1 [compound 2, 7-{4-[4-(2,3-dichlorophenyl)-1-piperazinyl]butoxy}-3,4-dihydrocarbostyril]	0.21 wt %	3.69 wt %	5.1 μm	–	–
O=C1CCc2ccc(OCCCCN3CCN(c4cccc(Cl)c4Cl)CC3)cc2N1 [Lot No. 1, 7-{4-[4-(2,3-dichlorophenyl)-1-piperazinyl]butoxy}-3,4-dihydrocarbostyril]	–	–	–	0.809 wt %	0.003 wt %
O=C1CCc2ccc(OCCCCN3CCN(c4cccc(Cl)c4Cl)CC3)cc2N1 [Lot No. 2, 7-{4-[4-(2,3-dichlorophenyl)-1-piperazinyl]butoxy}-3,4-dihydrocarbostyril]	–	–	–	2.759 wt %	0.032 wt %
O=C1CCc2ccc(OCCCCN3CCN(c4cccc(Cl)c4Cl)CC3)cc2N1 [compound 4, 7-{4-[4-(2,3-dichlorophenyl)-1-piperazinyl]butoxy}-3,4-dihydrocarbostyril]	0.29 wt %	3.90 wt %	9.6 μm	–	–

Reference: patent publication US20170136010A1, “ORAL SOLID PREPARATION COMPRISING ARIPIPRAZOLE AND METHOD FOR PRODUCING ORAL SOLID PREPARATION COMPRISING ARIPIPRAZOLE” (OTSUKA PHARMACEUTICAL CO., LTD, priority 2013, published 2017)
